Experimental data as given in PMC7872314, “Modeling Bioavailable Concentrations in Zebrafish Cell Lines and Embryos Increases the Correlation of Toxicity Potencies across Test Systems” (Environmental Science & Technology, 2020).
Read-outs that look alike come from different tables or passages of the source.

Tests used:
zebrafish embryos [1] = test: animal or person; assay type: in vivo, zebrafish (Danio rerio); details: for EC50: Danio rerio
[2] = test system: ZFL (hepatocytes) cell line; test: cells; assay type: cell-based, zebrafish (Danio rerio); details: Danio rerio, Hepatocyte
[3] = test system: ZFL (hepatocytes) cell line; test: cells; assay type: cell-based, zebrafish (Danio rerio); details: Danio rerio, Hepatocyte; remark: listed apart in the source
[4] = test system: ZFL (hepatocytes) cell line; test: cells; assay type: cell-based, zebrafish (Danio rerio); details: Danio rerio, Hepatocyte; remark: listed apart in the source
[5] = test system: ZF4 (fibroblasts) cell line; test: BCA assay (MTS/BCA multiplex), protein amount; assay type: cell-based, zebrafish (Danio rerio); details: Danio rerio, Fibroblast
[6] = test system: ZF4 (fibroblasts) cell line; test: ATP assay (ATP/LDH multiplex), ATP metabolism; assay type: cell-based, zebrafish (Danio rerio); details: Danio rerio, Fibroblast
[7] = test system: ZFL (hepatocytes) cell line; test: cells; assay type: cell-based, zebrafish (Danio rerio); details: Danio rerio, Hepatocyte; remark: listed apart in the source
[8] = ref Comptox, PubChem or DrugBank; cited from earlier work
[9] = test system: diverse mammalian cell assay results; parameters: method as in https://comptox.epa.gov/dashboard/; details: COMPTOX; ref https://comptox.epa.gov/dashboard/; read-out: median AC50; cited from earlier work
[10] = test system: ZF4 (fibroblasts) cell line; test: MTS assay (MTS/BCA multiplex), NAD(P)H metabolism; assay type: cell-based, zebrafish (Danio rerio); details: Danio rerio, Fibroblast
[11] = test system: ZF4 (fibroblasts) cell line; test: alamarBlue (AB) endpoint of AB/CFDA/NR multiplex, cellular respiration; assay type: cell-based, zebrafish (Danio rerio); details: Danio rerio, Fibroblast
[12] = test system: ZF4 (fibroblasts) cell line; test: Neutral red, absorbance (NRa), AB/CFDA/NR multiplex, lysosome stability; assay type: cell-based, zebrafish (Danio rerio); details: Danio rerio, Fibroblast
[13] = test system: ZFL (hepatocytes) cell line; test: cells; assay type: cell-based, zebrafish (Danio rerio); details: Danio rerio, Hepatocyte; remark: listed apart in the source
zebrafish embryos [14] = test system: zebrafish embryos; parameters: method as in earlier work; details: nominal, cited from earlier work
[15] = test system: ZFL (hepatocytes) cell line; test: cells; assay type: cell-based, zebrafish (Danio rerio); details: Danio rerio, Hepatocyte; remark: listed apart in the source
[16] = test system: ZF4 (fibroblasts) cell line; test: Neutral red, fluorescence (NRf), AB/CFDA/NR multiplex, lysosome stability; assay type: cell-based, zebrafish (Danio rerio); details: Danio rerio, Fibroblast
[17] = test system: ZFL (hepatocytes) cell line; test: cells; assay type: cell-based, zebrafish (Danio rerio); details: Danio rerio, Hepatocyte; remark: listed apart in the source
ZF4 and ZFL cell lines = test: Cytotoxicity assays, all endpoints, both cell lines (mean/range); assay type: cell-based, zebrafish (Danio rerio); details: 48 h, mean of all cytotoxicity endpoints (without LDH) in ZF4 and ZFL
[18] = test system: ZF4 (fibroblasts) cell line; test: CFDA endpoint of AB/CFDA/NR multiplex, membrane stability; assay type: cell-based, zebrafish (Danio rerio); details: Danio rerio, Fibroblast
[19] = test system: zebrafish cell lines vs zebrafish embryo; test: Potency ratios IC50;x/EC50;x (cytotoxicity assays vs mFET); parameters: species or system zebrafish (Danio rerio)

COC(=O)Nc1nc2ccc([S+]([O-])c3ccccc3)cc2[nH]1 (stereo not drawn) [Oxfendazole, oxfendazole]
difference in toxicity (EC50;nom) between 48 hpf and 144 hpf (zebrafish embryos [1]; 48 hpf time point less sensitive than 144 hpf): approximately the same
log EC50;nom (mFET) (zebrafish embryos [1]; 48 hpf, nominal, log10, listed as Ox): -4.607 M
EC50 (zebrafish embryos [1]; 48 hpf, nominal, log10, read-out: log EC50;nom (mFET) (converted)): 24.5 µM
EC50 (zebrafish embryos [1]; 48 hpf, nominal, read-out: EC50;nom (embryo)): 7.79 µg/mL
EC50 (zebrafish embryos [1]; read-out: EC50 48hpf): 24.7 µM
EC50 (zebrafish embryos [1]; read-out: EC50;nom (mFET)): 24.7 µM
IC50 ([2]; NR-fluo - ZFL, log10 of IC50, read-out: LogIC50 (converted)): 7.37 µM
IC50 ([2]; NR-fluo - ZFL, read-out: IC50): 7.37 µM
IC50 ([2]; ZFL, 48 h exposure, nominal, log10, read-out: logIC50 (log10 IC50;nom) NRf (converted)): 7.41 µM
IC50 ([2]; ZFL, 48 h exposure, nominal, read-out: IC50;nom NRf): 7.37 µM
IC50 ([3]; CFDA - ZFL, log10 of IC50, read-out: LogIC50 (converted)): 320 µM
IC50 ([3]; CFDA - ZFL, read-out: IC50): 320 µM
IC50 ([3]; ZFL, 48 h exposure, nominal, log10, read-out: logIC50 (log10 IC50;nom) CFDA (converted)): 324 µM
IC50 ([3]; ZFL, 48 h exposure, nominal, read-out: IC50;nom CFDA): 320 µM
IC50 ([4]; AB - ZFL, log10 of IC50, read-out: LogIC50 (converted)): 10.4 µM
IC50 ([4]; AB - ZFL, read-out: IC50): 10.4 µM
IC50 ([4]; ZFL, 48 h exposure, nominal, log10, read-out: logIC50 (log10 IC50;nom) AB (converted)): 10.5 µM
IC50 ([4]; ZFL, 48 h exposure, nominal, read-out: IC50;nom AB): 10.4 µM
IC50 ([5]; BCA - ZF4, log10 of IC50, read-out: LogIC50 (converted)): 6.43 µM
IC50 ([5]; BCA - ZF4, read-out: IC50): 6.43 µM
IC50 ([5]; ZF4, 48 h exposure, nominal, log10, read-out: logIC50 (log10 IC50;nom) BCA (converted)): 6.46 µM
IC50 ([5]; ZF4, 48 h exposure, nominal, read-out: IC50;nom BCA): 6.43 µM
IC50 ([6]; ATP - ZF4, log10 of IC50, read-out: LogIC50 (converted)): 144 µM
IC50 ([6]; ATP - ZF4, read-out: IC50): 144 µM
IC50 ([6]; ZF4, 48 h exposure, nominal, log10, read-out: logIC50 (log10 IC50;nom) ATP (converted)): 145 µM
IC50 ([6]; ZF4, 48 h exposure, nominal, read-out: IC50;nom ATP): 144 µM
IC50 ([7]; BCA - ZFL, log10 of IC50, read-out: LogIC50 (converted)): 0.058 µM
IC50 ([7]; BCA - ZFL, read-out: IC50): 0.058 µM
IC50 ([7]; ZFL, 48 h exposure, nominal, log10, read-out: logIC50 (log10 IC50;nom) BCA (converted)): 0.0575 µM
IC50 ([7]; ZFL, 48 h exposure, nominal, read-out: IC50;nom BCA): 0.058 µM
BCF [8]: 161
Physiological charge [8]: 0
Water Solubility [8]: insoluble
logKoa [8]: 9.57
logKow [8]: 1.45
pKa (Strongest Acidic) [8]: 9.26
pKa (Strongest Basic) [8]: 3.57
w_solubility (water solubility) [8]: 864 µM
AC50 [9]: 0.34 µM
IC50 ([10]; MTS - ZF4, log10 of IC50, read-out: LogIC50 (converted)): 20.4 µM
IC50 ([10]; MTS - ZF4, read-out: IC50): 20.4 µM
IC50 ([10]; ZF4, 48 h exposure, nominal, log10, read-out: logIC50 (log10 IC50;nom) MTS (converted)): 20.4 µM
IC50 ([10]; ZF4, 48 h exposure, nominal, read-out: IC50;nom MTS): 20.4 µM
IC50 ([11]; AB - ZF4, log10 of IC50, read-out: LogIC50 (converted)): 124 µM
IC50 ([11]; AB - ZF4, read-out: IC50): 124 µM
IC50 ([11]; ZF4, 48 h exposure, nominal, log10, read-out: logIC50 (log10 IC50;nom) AB (converted)): 123 µM
IC50 ([11]; ZF4, 48 h exposure, nominal, read-out: IC50;nom AB): 124 µM
IC50 ([12]; NR-abs - ZF4, log10 of IC50, read-out: LogIC50 (converted)): 58.6 µM
IC50 ([12]; NR-abs - ZF4, read-out: IC50): 58.6 µM
IC50 ([12]; ZF4, 48 h exposure, nominal, log10, read-out: logIC50 (log10 IC50;nom) NRa (converted)): 58.9 µM
IC50 ([12]; ZF4, 48 h exposure, nominal, read-out: IC50;nom NRa): 58.6 µM
IC50 ([12]; ZF4 cell line, NRa endpoint, nominal, read-out: IC50;nom): 18.5 µg/mL
IC50 ([13]; ATP - ZFL, log10 of IC50, read-out: LogIC50 (converted)): 106 µM
IC50 ([13]; ATP - ZFL, read-out: IC50): 106 µM
IC50 ([13]; ZFL, 48 h exposure, nominal, log10, read-out: logIC50 (log10 IC50;nom) ATP (converted)): 105 µM
IC50 ([13]; ZFL, 48 h exposure, nominal, read-out: IC50;nom ATP): 106 µM
EC50 (zebrafish embryos [14]; 144 hpf, converted, listed as Ox): 21.6 µM
logEC50 144 hpf (zebrafish embryos [14]; log10): -4.666 M
IC50 ([15]; NR-abs - ZFL, log10 of IC50, read-out: LogIC50 (converted)): 8.93 µM
IC50 ([15]; NR-abs - ZFL, read-out: IC50): 8.93 µM
IC50 ([15]; ZFL, 48 h exposure, nominal, log10, read-out: logIC50 (log10 IC50;nom) NRa (converted)): 8.91 µM
IC50 ([15]; ZFL, 48 h exposure, nominal, read-out: IC50;nom NRa): 8.93 µM
IC50 ([16]; NR-fluo - ZF4, log10 of IC50, read-out: LogIC50 (converted)): 54.3 µM
IC50 ([16]; NR-fluo - ZF4, read-out: IC50): 54.3 µM
IC50 ([16]; ZF4, 48 h exposure, nominal, log10, read-out: logIC50 (log10 IC50;nom) NRf (converted)): 53.7 µM
IC50 ([16]; ZF4, 48 h exposure, nominal, read-out: IC50;nom NRf): 54.3 µM
IC50 ([17]; MTS - ZFL, log10 of IC50, read-out: LogIC50 (converted)): 9.73 µM
IC50 ([17]; MTS - ZFL, read-out: IC50): 9.73 µM
IC50 ([17]; ZFL, 48 h exposure, nominal, log10, read-out: logIC50 (log10 IC50;nom) MTS (converted)): 9.77 µM
IC50 ([17]; ZFL, 48 h exposure, nominal, read-out: IC50;nom MTS): 9.73 µM
IC50 (ZF4 and ZFL cell lines; Danio rerio, log10, read-out: Mean log IC50nom (converted)): 23.4 µM
Mean log IC50nom (ZF4 and ZFL cell lines; log10, listed as Ox): -4.631 M
IC50 ([18]; CFDA - ZF4, log10 of IC50, read-out: LogIC50 (converted)): 153 µM
IC50 ([18]; CFDA - ZF4, read-out: IC50): 153 µM
IC50 ([18]; ZF4, 48 h exposure, nominal, log10, read-out: logIC50 (log10 IC50;nom) CFDA (converted)): 151 µM
IC50 ([18]; ZF4, 48 h exposure, nominal, read-out: IC50;nom CFDA): 153 µM
potency ratio IC50;nom/EC50;nom (median) ([19]; median over cytotoxicity endpoints, nominal, 48 h cells / 48 hpf mFET): 1.51
difference in sensitivity between embryo (EC50;nom) and cells (IC50;nom) ([19]; nominal concentrations, higher potency in the mFET): equal nominal median concentrations between test systems
